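Each compound was tested at five concentrations against cells in 96-well plates for 48 hours. TGI marks complete inhibition of growth.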

This passage reports TGI results from PubChem BioAssay (NCI).

Experiment in all cases: NCI anticancer screen, dose series, 48 h
In assay [1] the test system is HOP-92 NSCLC.
In assay [2] the test system is NCI/ADR-RES ovarian.
The subject of assay [3] is HCC-2998 colon.
Assay [4] relates to SN12C renal.
Assay [5] deals with SK-MEL-28 melanoma.
Assay [6] relates to NCI-H23 lung.
The test system of assay [7] is CCRF-CEM leukemia.
Assay [8] has as its system UO-31 renal.
The test system of assay [9] is HT29 colon.
The test system of assay [10] is SNB-19 CNS.

On to `O=c1c2cc3c(=O)n4c(cc(-c5ccccc5)c5cc(Cl)ccc54)nc3cc2nc2cc(-c3ccccc3)c3cc(Cl)ccc3n12`, for which the TGI in assay [1], in assay [2], in assay [3], in [4], in [5] and in assay [6] was greater than 100 µM each time. In addition, the TGI in assay [7], in [8], in [9] and in [10] was greater than 100 µM each time.
Take `Cc1c2c(c(O)c3c(O)cccc13)C(=O)C1(O)C(O)=C(C(=O)NCNc3ccc(C(N)=O)cn3)C(=O)C(N(C)C)C1C2` (centres undefined): the TGI in assay [1] is 6.92 µM; in [2] it was greater than 100 µM; in [3], 8.66 µM; in [4], greater than 100 µM; in assay [5], 14.6 µM; in [6] it was 39.3 µM. The figures for the TGI in assay [7] and in assay [9] were 8.31 µM and greater than 100 µM, respectively.
Turning to `CS(=O)(=O)c1ccc(N=C/C=C/Nc2ccc(S(C)(=O)=O)cc2)cc1`, the TGI in assay [1], in assay [2], in assay [3], in [4], in assay [5] and in assay [6] was greater than 100 µM in each case. Also, the TGI in assay [7], in assay [8], in [9] and in assay [10] was greater than 100 µM throughout.
Consider `C=CCN(C(=O)OC(C)(C)C)[C@H](C)C(=O)N[C@@H](C)C(=O)OC`, for which the TGI in assay [1], in assay [2], in [4], in assay [5], in [6] and in [7] was greater than 100 µM each time. In addition, the TGI in [8], in assay [9] and in [10] was greater than 100 µM in each case.
With `CN(/N=C/c1cccc2cccnc12)c1ccc(Cl)cc1[N+](=O)[O-]`, the TGI in assay [1], in assay [2], in assay [3], in [4], in [6] and in assay [7] was greater than 100 µM each time. The TGI in assay [8], in [9] and in assay [10] was greater than 100 µM each time.
In the case of `COc1ccc(C2SCC(=O)N2NC(=O)c2ccc(NC(C)=O)cc2)c(OC)c1` (centres undefined), the TGI in assay [1], in assay [2], in [3], in [4], in assay [5] and in [6] was greater than 100 µM each time. Moreover, the TGI in [8], in assay [9] and in assay [10] was greater than 100 µM throughout.
Consider `O=C1CSC(c2ccccc2[N+](=O)[O-])N1c1ccc(-c2ccc(-n3c(-c4ccccc4)nc4ccccc4c3=O)cc2)cc1` (centres undefined), for which the TGI in assay [1], in assay [2], in [3], in [4], in assay [5] and in assay [7] was greater than 100 µM throughout. Also, the TGI in assay [8], in assay [9] and in [10] was greater than 100 µM in each case.
As to `CC(=O)Nc1c(C)cc2c(nc3n2CCC3OC(C)=O)c1[N+](=O)[O-]` (centres undefined), the TGI in assay [1], in assay [2], in assay [4], in [5], in assay [6] and in [7] was greater than 100 µM each time. For the same compound, the TGI in assay [8], in assay [9] and in assay [10] was greater than 100 µM each time.
Regarding `COc1ccc(CCCNC(=O)c2cc(OC)c(OC)cc2CCO)cc1OC`, the TGI in [1], in assay [2], in [3], in assay [4], in assay [5] and in assay [6] was greater than 100 µM throughout. Also, the TGI in assay [8], in assay [9] and in assay [10] was greater than 100 µM each time.
With `N#CC(Cc1ccccc1)N(CCC1=CCCCC1)Cc1ccccc1` (centres undefined), the TGI in assay [1], in [2], in assay [3], in assay [5], in assay [6] and in [8] was greater than 100 µM each time. Also, the TGI in assay [9] and in assay [10] was greater than 100 µM throughout.
Regarding `COC1CN(C)C(=Nc2cccc3ccccc23)S1` (centres undefined), the TGI in assay [1], in assay [2], in [3], in assay [4], in [5] and in [6] was greater than 10 µM in each case. Further, the TGI in assay [7], in assay [9] and in assay [10] was greater than 10 µM in each case.
`O=C(Nc1ccc2[nH]c(C(=O)N3CC(CCl)c4c3cc([N+](=O)[O-])c3ccccc43)cc2c1)Nc1ccc2[nH]c(C(=O)N3CC(CCl)c4c3cc([N+](=O)[O-])c3ccccc43)cc2c1` (centres undefined): the TGI in assay [1] is greater than 100 µM; in [2], greater than 100 µM; in assay [4], greater than 100 µM; in assay [5], greater than 100 µM; in assay [6] it was greater than 100 µM; in [7] it was 36.9 µM. The TGI in assay [8] is 41.1 µM; in assay [10] it was greater than 100 µM.
Regarding `COC1CC(COCc2ccccc2)CC(OC)O1` (centres undefined), the TGI is greater than 100 µM in assay [1]; greater than 100 µM in [2]; greater than 100 µM in assay [3]; greater than 100 µM in assay [4]; greater than 100 µM in assay [6]; 0.44 µM in assay [7]. The TGI in assay [8] and in assay [9] was greater than 100 µM throughout.
As to `Cc1ccc(O)c(C2=CC(c3cccc(Cl)c3)SC(N)=N2)c1` (centres undefined), the TGI in [1] was 42.9 µM; in assay [2], greater than 100 µM; in assay [3] it was 33.4 µM; in assay [4] it was 34.7 µM; in assay [6] it was 80.1 µM; in assay [7] it was 83.1 µM. Besides, the values for the TGI in assay [8], in [9] and in [10] were 69.1 µM, 46.3 µM and 37.7 µM, respectively.
